Tests used:
Format in all cases: biochemical
human α-thrombin = molecular target: T1, human α-thrombin (Homo sapiens, UniProt P00734); assay: Thrombin (fIIa) chromogenic enzyme assay; conditions: for IC50: 0 min
T1 construct: Purified human α-thrombin; purchased Enzyme Research Laboratories, Inc
Description: For screening compounds using these assays, the compounds of the present invention are dissolved in buffer to give solutions containing concentrations such that assay concentrations range from 0 to 100 micromolar. In the assays for thrombin, plasmin, t-PA, aPC, chymotrypsin, and trypsin, a chromogenic synthetic substrate is added to a solution containing test compound and the enzyme of interest and the residual catalytic activity of that enzyme is determined spectrophometrically. The IC50 of a compound of the present invention is determined from the rate of substrate turnover caused by the specific enzyme being measured. IC50 is the concentration of test compound which gives 50% inhibition of the rate of substrate turnover. Likewise, the Ki of a compound of the present invention is determined from the rate of substrate turnover caused by the specific enzyme being measured at various […] concentrations. Example A provides exemplars of in vitro assays used to select the compounds of the present invention.
(§1) The ability of compounds of the present invention to act as a selective inhibitor of thrombin activity was assessed by determining the concentration of test-compound which inhibited the activity of this enzyme by 50%, (IC50), and comparing this value to that determined for all or some of the following related serine proteases: recombinant tissue plasminogen activator (rt-PA), plasmin, activated protein C, chymotrypsin, factor Xa and trypsin.
(§2) The buffer used for all assays was HBSA (10 mM HEPES, pH 7.5, 150 mM sodium chloride, 0.1% bovine serum albumin).
The assay for IC50 determinations was conducted by combining in appropriate wells of a Corning microtiter plate, 50 microliters of HBSA, 50 microliters of the test compound at a specified concentration (covering a broad concentration range) diluted in HBSA (or HBSA alone for V0 (uninhibited velocity) measurement), and 50 microliters of the enzyme diluted in HBSA. […] The initial velocity of chromogenic substrate hydrolysis was measured by the change in absorbance at 405 nm using a Thermo Max® Kinetic Microplate Reader over a 5 minute period in which less than 5% of the added substrate was utilized. The concentration of added inhibitor which caused a 50% decrease in the initial rate of hydrolysis was defined as the IC50 value.
Enzyme activity was determined using the chromogenic substrate, Pefachrome t-PA (CH3SO2-D-hexahydrotyrosine-glycyl-L-Arginine-p-nitroaniline, obtained from Pentapharm Ltd.). The substrate was reconstituted in deionized water prior to use. Purified human α-thrombin was obtained from Enzyme Research Laboratories, Inc. The buffer used for all assays was HBSA (10 mM HEPES, pH 7.5, 150 mM sodium chloride, 0.1% bovine serum albumin).
The initial velocity of Pefachrome t-PA hydrolysis was measured by the change in absorbance at 405 nm using a Thermo Max® Kinetic Microplate Reader over a 5 minute period in which less than 5% of the added substrate was utilized. The concentration of:added inhibitor which caused a 50% decrease in the initial rate of hydrolysis was defined as the IC50 value.

Factor Xa = molecular target: T2, Factor Xa (Homo sapiens, UniProt P00742); assay: Factor Xa chromogenic enzyme assay; conditions: read-out: fXa IC50
T2 construct: purchased Enzyme Research Laboratories, Inc. (South Bend, Ind.)
T2 sequence (P00742 235-488 limits assumed): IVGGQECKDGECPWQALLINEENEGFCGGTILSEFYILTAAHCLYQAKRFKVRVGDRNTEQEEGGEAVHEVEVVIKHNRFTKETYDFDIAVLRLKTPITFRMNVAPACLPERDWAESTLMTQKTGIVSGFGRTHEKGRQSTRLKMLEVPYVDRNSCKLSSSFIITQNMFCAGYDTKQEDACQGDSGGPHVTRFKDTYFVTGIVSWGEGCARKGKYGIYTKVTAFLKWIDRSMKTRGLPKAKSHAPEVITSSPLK
T2 sequence (P00742 41-179 partner limits assumed): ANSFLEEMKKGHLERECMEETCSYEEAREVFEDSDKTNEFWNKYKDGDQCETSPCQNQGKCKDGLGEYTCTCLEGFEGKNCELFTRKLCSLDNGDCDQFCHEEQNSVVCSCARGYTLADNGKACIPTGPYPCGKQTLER
Description: as §1, §2
(§3) The assay for IC50 determinations was conducted by combining in appropriate wells of a Corning microtiter plate, 50 microliters of HBSA, 50 microliters of the test compound at a specified concentration (covering a broad concentration range) diluted in HBSA (or HBSA alone for V0 (uninhibited velocity) measurement), and 50 microliters of the enzyme diluted in HBSA. Following a 30 minute incubation at ambient temperature, 50 microliters of the substrate at the concentrations specified below were added to the wells, yielding a final total volume of 200 microliters. The initial velocity of chromogenic substrate hydrolysis was measured by the change in absorbance at 405 nm using a Thermo Max® Kinetic Microplate Reader over a 5 minute period in which less than 5% of the added substrate was utilized. The concentration of added inhibitor which caused a 50% decrease in the initial rate of hydrolysis was defined as the IC50 value.
Factor Xa catalytic activity was determined using the chromogenic substrate S-2765 (N-benzyloxycarbonyl-D-arginine-L-glycine-L-arginine-p-nitroaniline), obtained from DiaPharma Group (Franklin, Ohio). All substrates were reconstituted in deionized water prior to use. […] Purified human Factor X was obtained from Enzyme Research Laboratories, Inc. (South Bend, Ind.) and Factor Xa (FXa) was activated and prepared from it as described [Bock, P. E., Craig, P. A., Olson, S. T., and Singh, P. Arch. Biochem. Biophys. 273:375-388 (1989)]. The enzyme was diluted into HBSA prior to assay in which the final concentration was 0.25 nM.

human plasmin = molecular target: T3, human plasmin (Homo sapiens, UniProt P00747); assay: Plasmin chromogenic enzyme assay
T3 construct: Purified human plasmin; purchased Enzyme Research Laboratories, Inc
T3 sequence (P00747 581-810 limits assumed): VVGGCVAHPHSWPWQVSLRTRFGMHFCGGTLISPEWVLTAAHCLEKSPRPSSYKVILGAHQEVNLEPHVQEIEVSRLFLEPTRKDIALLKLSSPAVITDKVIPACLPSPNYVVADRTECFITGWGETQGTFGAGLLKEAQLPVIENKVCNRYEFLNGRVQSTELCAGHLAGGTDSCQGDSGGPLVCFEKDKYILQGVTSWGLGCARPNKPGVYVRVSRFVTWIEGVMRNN
T3 sequence (P00747 97-580 partner limits assumed): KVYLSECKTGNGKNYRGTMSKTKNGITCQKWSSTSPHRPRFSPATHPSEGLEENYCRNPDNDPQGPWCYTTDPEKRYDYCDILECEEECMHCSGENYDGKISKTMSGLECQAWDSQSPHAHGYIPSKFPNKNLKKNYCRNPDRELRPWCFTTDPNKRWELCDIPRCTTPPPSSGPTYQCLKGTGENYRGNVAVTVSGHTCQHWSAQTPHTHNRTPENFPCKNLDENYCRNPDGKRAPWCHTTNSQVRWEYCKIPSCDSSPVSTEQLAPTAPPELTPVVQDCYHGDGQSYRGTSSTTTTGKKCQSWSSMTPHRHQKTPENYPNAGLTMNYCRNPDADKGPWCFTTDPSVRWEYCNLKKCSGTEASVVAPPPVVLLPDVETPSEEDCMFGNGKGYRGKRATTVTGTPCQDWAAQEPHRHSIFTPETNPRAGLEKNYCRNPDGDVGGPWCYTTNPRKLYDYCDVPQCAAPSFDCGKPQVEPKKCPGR
Description: as §1, §2, §3
Plasmin catalytic activity was determined using the chromogenic substrate, S-2366 [L-pyroglutamyl-L-prolyl-L-arginine-p-nitroaniline hydrochloride], which was obtained from DiaPharma group. The substrate was made up in deionized water followed by dilution in HBSA prior to the assay in which the final concentration was 300 micromolar (about 2:.5-times Km). Purified human plasmin was obtained from Enzyme Research Laboratories, Inc. The enzyme was diluted into HBSA prior to assay in which the final concentration was 1.0 nM.

[1] = molecular target: T4, bovine pancreatic trypsin (Bos taurus, UniProt P00760); assay: Trypsin chromogenic enzyme assay
T4 sequence (P00760 24-246): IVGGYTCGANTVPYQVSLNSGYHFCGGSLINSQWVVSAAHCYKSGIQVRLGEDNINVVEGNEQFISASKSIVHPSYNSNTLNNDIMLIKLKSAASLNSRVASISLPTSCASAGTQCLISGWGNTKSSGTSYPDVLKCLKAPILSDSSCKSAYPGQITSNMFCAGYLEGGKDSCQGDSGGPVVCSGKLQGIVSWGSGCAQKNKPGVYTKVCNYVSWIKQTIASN
Description: as §1, §2, §3
Trypsin catalytic activity was determined using the chromogenic substrate, S-2222 (benzoyl-L-isoleucine-L-glutamic acid-[gamma-methyl ester]-L-arginine-p-nitroanilide), which was obtained from DiaPharma Group. […] Purified (3×-crystallized; TRL3) bovine pancreatic trypsin was obtained from Worthington Biochemical Corp. The enzyme was reconstituted in deionized water and diluted into HBSA prior to assay in which the final concentration was 0.5 nM.

Row | SMILES | Ki (human α-thrombin) [nM] | IC50 (human α-thrombin) [nM] | IC50 (Factor Xa) [nM] | IC50 (human plasmin) [nM] | IC50 [1] [nM]
1 | Cc1nc(N)ccc1CNC(=O)CN1CCCC[C@H](NS(=O)(=O)c2ccc3c(c2)CCO3)C1=O [Example 35, 3-(S)-(2,3-Dihydrobenzo[b]furanyl-5-sulfonyl)amino-1-(2-amino-6-methyl-5-methylenecarboxamidomethylpyridinyl)-4,5,6,7-tetrahydroazepin-2-one] | ≤ 100 | 100 to 300 | ≥ 2500 | ≥ 2500 | ≥ 2500
2 | N=C(N)N1CCC(CNC(=O)CN2CCCC[C@H](NS(=O)(=O)c3ccc4c(c3)CCO4)C2=O)CC1 [Example 36, 3-(S)-(2,3-Dihydrobenzo[b]furanyl-5-sulfonyl)amino-1-(1-amidino-4-methylenecarboxamidomethylperidinyl)-4,5,6,7-tetrahydroazepin-2-one] | ≤ 100 | 100 to 300 | ≥ 2500 | ≥ 2500 | ≥ 2500
3 | N/C(=N\O)c1ccc(CNC(=O)CN2CCCC[C@H](NS(=O)(=O)c3ccc4c(c3)CCO4)C2=O)cc1 [Example 37] | 100 to 300 | 300 to 2500 | ≥ 2500 | ≥ 2500 | 300 to 2500
4 | N=C(N)c1ccc(CNC(=O)CN2CCCC[C@H](NS(=O)(=O)c3ccc4c(c3)CCO4)C2=O)cc1 [Example 38] | ≤ 100 | ≤ 100 | ≥ 2500 | ≥ 2500 | ≤ 100
5 | N=C(N)c1ccc(CNC(=O)CN2CCCC[C@H](NS(=O)(=O)c3ccc4c(c3)CCO4)C2=O)c(F)c1 [Example 39] | ≤ 100 | 100 to 300 | ≥ 2500 | ≥ 2500 | 100 to 300
6 | N=C(N)N1CCC(CNC(=O)CN2CCCC[C@H](NS(=O)(=O)c3ccc4ccccc4c3)C2=O)CC1 [Example 40] | ≥ 2500 | ≥ 2500 | ≥ 2500 | ≥ 2500 | ≥ 2500
7 | COc1ccc(OC)c(S(=O)(=O)N[C@H]2CCCCN(CC(=O)NCC3CCN(C(=N)N)CC3)C2=O)c1 [Example 42] | 100 to 300 | 300 to 2500 | ≥ 2500 | ≥ 2500 | ≥ 2500
8 | COc1ccc(S(=O)(=O)N[C@H]2CCCCN(CC(=O)NCC3CCN(C(=N)N)CC3)C2=O)cc1OC [Example 43] | ≤ 100 | 300 to 2500 | ≥ 2500 | ≥ 2500 | ≥ 2500
9 | N=C(N)c1ccc(CNC(=O)CN2CCCC[C@H](NS(=O)(=O)c3ccc4ccccc4c3)C2=O)cc1 [Example 44] | 100 to 300 | 300 to 2500 | ≥ 2500 | ≥ 2500 | 100 to 300
10 | COc1ccc(S(=O)(=O)N[C@H]2CCCCN(CC(=O)NCc3ccc(C(=N)N)cc3)C2=O)cc1OC [Example 47] | ≤ 100 | ≤ 100 | ≥ 2500 | ≥ 2500 | 100 to 300
11 | N/C(=N\O)c1ccc(CNC(=O)CN2C(=O)[C@@H](NS(=O)(=O)c3ccc4c(c3)CCO4)CCc3ccccc32)cc1 [Example 54, 3-(S)-(2,3-Dihydrobenzo[b]furanyl-5-sulfonyl)amino-1-(4-hydroxyamidinylbenzylmethylenecarboxamido)-4,5-dihydrobenzo[f]azepin-2-one] | 300 to 2500 | ≥ 2500 | ≥ 2500 | ≥ 2500 | ≥ 2500
12 | N=C(N)c1ccc(CNC(=O)CN2C(=O)[C@@H](NS(=O)(=O)c3ccc4c(c3)CCO4)CCc3ccccc32)cc1 [Example 55, 3-(S)-(2,3-Dihydrobenzo[b]furanyl-5-sulfonyl)amino-1-(4-amidinylphenylmethylenecarboxamido)-4,5-dihydrobenzo[f]azepin-2-one] | ≤ 100 | ≤ 100 | ≥ 2500 | ≥ 2500 | 300 to 2500
13 | N=C(N)N1CCC(CNC(=O)CN2C(=O)[C@@H](NS(=O)(=O)c3ccc4c(c3)CCO4)CCc3ccccc32)CC1 [Example 56, 3-(S)-(2,3-Dihydrobenzo[b]furanyl-5-sulfonyl)amino-1-(1-amidino-4-methylenecarboxamidomethylpiperidyl)-4,5-dihydrobenzo[f]azepin-2-one] | ≤ 100 | 300 to 2500 | ≥ 2500 | ≥ 2500 | ≥ 2500

Further lines, results first:

Row | Ki (human α-thrombin) [nM] | IC50 (human α-thrombin) [nM] | IC50 (Factor Xa) [nM] | IC50 (human plasmin) [nM] | IC50 [1] [nM] | SMILES
14 | ≤ 100 | ≤ 100 | 300 to 2500 | ≥ 2500 | 100 to 300 | N=C(N)c1ccc(CNC(=O)CN2CCCC[C@H](NS(=O)(=O)c3ccc4c(c3)CCO4)C2=O)s1 [Example 24, 3-(S)-(2,3-Dihydrobenzo[b]furanyl-5-sulfonyl)amino-1-(2-amindino-5-methylenecarboxamidomethylthiophenyl)-4,5,6,7-tetrahydroazepin-2-one]
15 | ≤ 100 | 300 to 2500 | ≥ 2500 | ≥ 2500 | ≥ 2500 | N=C(N)N1CCC(CNC(=O)CN2CCCC[C@H](NS(=O)(=O)c3ccccc3)C2=O)CC1 [Example 41, 3-(Benzenesulfonyl)amino-1-(1-amidino-4-methylenecarboxamido-methylpiperidinyl)-4,5,6,7-tetrahydroazepin-2-one]
16 | ≤ 100 | 100 to 300 | ≥ 2500 | ≥ 2500 | 100 to 300 | N=C(N)c1ccc(CNC(=O)CN2CCCC[C@H](NS(=O)(=O)c3ccccc3)C2=O)cc1 [Example 45]
17 | ≤ 100 | ≤ 100 | ≥ 2500 | ≥ 2500 | ≥ 2500 | COc1ccc(OC)c(S(=O)(=O)N[C@H]2CCCCN(CC(=O)NCc3ccc(C(=N)N)cc3)C2=O)c1 [Example 46]
18 | ≤ 100 | 300 to 2500 | ≥ 2500 | ≥ 2500 | ≥ 2500 | N[C@H]1CC[C@H](CNC(=O)CN2CCCC[C@H](NS(=O)(=O)c3ccc4c(c3)CCO4)C2=O)CC1 [Example 48]
19 | 100 to 300 | 300 to 2500 | ≥ 2500 | ≥ 2500 | ≥ 2500 | O=C(CN1CCCC[C@H](NS(=O)(=O)c2ccc3c(c2)CCO3)C1=O)NCc1ccc2[nH]ncc2c1 [Example 49]
